# Laboratory results: ChEMBL document CHEMBL5233210, “Pyrazolone structural motif in medicinal chemistry: Retrospect and prospect” (Eur J Med Chem, 2020)
# How the values were obtained:
# Rattus norvegicus [1] = assay: Antiinflammatory activity against rat assessed as inhibition of carrageenan-induced paw edema relative to control; type: functional; design: concentration or dose not given beside the values
# Rattus norvegicus [2] = assay: Antiinflammatory activity against rat assessed as inhibition of carrageenan-induced paw edema; type: functional
# Ehrlich [3] = assay: Cytotoxicity against mouse Ehrlich ascites cells assessed as dead cells at 100 ug/ml; type: functional; conditions: dose 100 µg/ml
# Ehrlich [4] = assay: Cytotoxicity against mouse Ehrlich ascites cells assessed as dead cells at 500 ug/ml; type: functional; conditions: dose 500 µg/ml
# Ehrlich [5] = assay: Cytotoxicity against mouse Ehrlich ascites cells assessed as dead cells at 25 ug/ml; type: functional; conditions: dose 25 µg/ml
# Bacillus subtilis = assay: Antibacterial activity against Bacillus subtilis assessed as diameter of inhibition zone at 100 ppm; type: functional; conditions: read-out: DIZ
# Streptococcus mutans = assay: Antibacterial activity against Streptococcus mutans assessed as diameter of inhibition zone at 100 ppm; type: functional; conditions: read-out: DIZ
# Micrococcus luteus = assay: Antibacterial activity against Micrococcus luteus assessed as diameter of inhibition zone at 100 ppm; type: functional; conditions: read-out: DIZ
# Pseudomonas aeruginosa [6] = assay: Antibacterial activity against Pseudomonas aeruginosa assessed as diameter of inhibition zone at 100 ppm; type: functional; conditions: read-out: DIZ
# Salmonella typhi = assay: Antibacterial activity against Salmonella typhi assessed as diameter of inhibition zone at 100 ppm; type: functional, Salmonella enterica subsp. enterica serovar Typhi; conditions: Salmonella enterica, read-out: DIZ
# Salmonella paratyphi = assay: Antibacterial activity against Salmonella paratyphi assessed as diameter of inhibition zone at 100 ppm; type: functional, Salmonella enterica subsp. enterica serovar Paratyphi A; conditions: Salmonella enterica, read-out: DIZ
# Candida albicans [7] = assay: Antifungal activity against Candida albicans assessed as diameter of inhibition zone at 100 ppm; type: functional; conditions: read-out: DIZ
# Trichoderma viride = assay: Antifungal activity against Trichoderma viride assessed as diameter of inhibition zone at 100 ppm; type: functional; conditions: read-out: DIZ
# Ovis aries = species on record: Ovis aries; assay: Selectivity index, ratio of IC50 for ovine COX-1 to IC50 for ovine COX-2
# [8] = Antioxidant activity assessed as DPPH radical scavenging activity; type: functional
# Escherichia coli [9] = assay: Antibacterial activity against Escherichia coli assessed as diameter of inhibition zone at 100 ppm; type: functional; conditions: read-out: DIZ
# Aspergillus niger = assay: Antifungal activity against Aspergillus niger assessed as diameter of inhibition zone at 100 ppm; type: functional; conditions: read-out: DIZ
# [10] = molecular target: T1, Prostaglandin G/H synthase 1 (Ovis aries, UniProt P05979); assay: Inhibition of ovine COX-1
# T1 sequence (P05979 whole entry): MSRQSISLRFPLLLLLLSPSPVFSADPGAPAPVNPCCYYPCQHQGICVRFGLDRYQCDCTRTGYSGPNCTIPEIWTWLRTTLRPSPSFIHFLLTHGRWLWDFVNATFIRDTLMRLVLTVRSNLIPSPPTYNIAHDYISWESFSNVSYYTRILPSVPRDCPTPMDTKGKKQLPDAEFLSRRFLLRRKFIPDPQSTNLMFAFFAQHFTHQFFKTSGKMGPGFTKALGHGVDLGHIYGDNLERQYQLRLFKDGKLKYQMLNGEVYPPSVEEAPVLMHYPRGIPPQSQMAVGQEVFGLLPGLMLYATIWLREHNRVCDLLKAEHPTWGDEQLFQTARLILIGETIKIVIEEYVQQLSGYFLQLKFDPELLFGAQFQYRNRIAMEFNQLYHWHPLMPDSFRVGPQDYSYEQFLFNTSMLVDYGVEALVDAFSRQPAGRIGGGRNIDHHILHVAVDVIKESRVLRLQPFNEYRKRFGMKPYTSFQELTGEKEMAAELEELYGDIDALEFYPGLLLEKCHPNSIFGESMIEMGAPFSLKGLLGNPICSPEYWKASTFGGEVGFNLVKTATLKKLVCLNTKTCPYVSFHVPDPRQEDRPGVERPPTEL
# [11] = Antioxidant activity assessed as ABTS radical scavenging activity; type: functional
# [12] = molecular target: T2, Prostaglandin G/H synthase 2 (Ovis aries, UniProt P79208); assay: Inhibition of ovine COX-2
# T2 sequence (P79208 whole entry): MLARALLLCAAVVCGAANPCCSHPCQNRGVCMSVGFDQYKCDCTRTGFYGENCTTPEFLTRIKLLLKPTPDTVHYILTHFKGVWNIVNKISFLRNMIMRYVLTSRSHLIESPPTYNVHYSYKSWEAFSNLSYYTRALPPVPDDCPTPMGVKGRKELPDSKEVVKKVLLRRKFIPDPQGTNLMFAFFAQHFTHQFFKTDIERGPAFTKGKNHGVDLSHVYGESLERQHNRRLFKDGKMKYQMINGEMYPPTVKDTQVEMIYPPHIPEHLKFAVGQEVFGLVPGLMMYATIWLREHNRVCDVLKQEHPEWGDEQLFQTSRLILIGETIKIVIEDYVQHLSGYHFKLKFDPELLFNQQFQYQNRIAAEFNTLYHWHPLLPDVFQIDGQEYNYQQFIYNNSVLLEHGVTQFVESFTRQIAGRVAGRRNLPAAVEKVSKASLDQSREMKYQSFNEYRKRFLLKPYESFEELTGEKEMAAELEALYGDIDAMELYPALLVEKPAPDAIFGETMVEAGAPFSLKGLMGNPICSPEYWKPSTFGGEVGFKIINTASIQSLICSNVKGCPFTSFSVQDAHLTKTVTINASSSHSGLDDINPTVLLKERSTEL
# Streptococcus pyogenes = assay: Antibacterial activity against Streptococcus pyogenes; type: functional
# Pseudomonas aeruginosa [13] = assay: Antibacterial activity against Pseudomonas aeruginosa; type: functional
# Escherichia coli [14] = assay: Antibacterial activity against Escherichia coli; type: functional
# Aspergillus fumigatus = assay: Antifungal activity against Aspergillus fumigatus; type: functional
# Candida albicans [15] = assay: Antifungal activity against Candida albicans; type: functional
# Mus musculus [16] = species on record: Mus musculus; assay: Antidepressant activity in Swiss albino mouse assessed as change in immobility by forced swim test; type: functional
# Mus musculus [17] = species on record: Mus musculus; assay: Antidepressant activity in Swiss albino mouse assessed as decrease in immobility time by forced swim test (reference value: 203.3 sec); type: functional
# Mus musculus [18] = species on record: Mus musculus; assay: Antidepressant activity in Swiss albino mouse assessed as decrease in immobility time by tail suspension test (reference value: 185.8 sec); type: functional
# Mus musculus [19] = species on record: Mus musculus; assay: Antidepressant activity in Swiss albino mouse assessed as change in immobility by tail suspension test; type: functional
# HepG2 = assay: Cytotoxicity against human HepG2 cells; type: functional, cell-based
# PC-3 = assay: Cytotoxicity against human PC-3 cells; type: functional, cell-based
smiles,measurement,setting,value
NS(=O)(=O)c1ccc(N/N=C2/C=NN(c3ccc(C(=O)O)cc3)C2=O)cc1,Activity,Rattus norvegicus [1],72.72%
same,ED50,Rattus norvegicus [2],79 µmol/kg
CC1=NNC(=O)/C1=N/Nc1sc2c(c1C(N)=O)CCCC2,Activity,Ehrlich [3],96.5%
same,Activity,Ehrlich [4],66.6%
same,Activity,Ehrlich [5],38.1%
Cc1[nH]n(-c2ccccc2)c(=O)c1C(c1ccc(Br)c(F)c1)c1c(O)ccc2ccccc12 (stereo unspecified),zone of inhibition at 100 µg/mL,Bacillus subtilis,19.5 mm
same,zone of inhibition at 100 µg/mL,Streptococcus mutans,18 mm
same,zone of inhibition at 100 µg/mL,Micrococcus luteus,16.5 mm
same,zone of inhibition at 100 µg/mL,Pseudomonas aeruginosa [6],14.5 mm
same,zone of inhibition at 100 µg/mL,Salmonella typhi,20.5 mm
same,zone of inhibition at 100 µg/mL,Salmonella paratyphi,19.5 mm
same,zone of inhibition at 100 µg/mL,Candida albicans [7],18.5 mm
same,zone of inhibition at 100 µg/mL,Trichoderma viride,10.5 mm
Cc1[nH]n(-c2ccccc2)c(=O)c1CNC(=S)Nc1ccccc1,Activity,Rattus norvegicus [1],91%
same,Ratio IC50,Ovis aries,400
same,ED50,Rattus norvegicus [2],102 mg/kg
CCOC(=O)c1c(N/N=C2/C(=O)NN=C2C)sc2c1CCCC2,Activity,Ehrlich [3],79.4%
same,Activity,Ehrlich [4],71%
same,Activity,Ehrlich [5],43%
Cc1c(/N=C/c2ccc(O)cc2O)c(=O)n(-c2ccccc2)n1C,IC50,[8],20.1 µM
C/C(=N\c1c(C)n(C)n(-c2ccccc2)c1=O)c1cc(O)ccc1O,IC50,[8],15.2 µM
NC(=O)c1c(N/N=C2/C(=O)NN=C2N)sc2c1CCCC2,Activity,Ehrlich [3],98.4%
same,Activity,Ehrlich [4],81%
same,Activity,Ehrlich [5],65%
CCCOC(=O)c1cc(O)c(O)c(O)c1 [PROPYL GALLATE],IC50,[8],30.3 µM
Nc1cc(=O)n(-c2ccc([N+](=O)[O-])cc2[N+](=O)[O-])[nH]1,zone of inhibition at 100 µg/mL,Escherichia coli [9],15.3 mm
same,zone of inhibition at 100 µg/mL,Bacillus subtilis,18.1 mm
same,zone of inhibition at 100 µg/mL,Pseudomonas aeruginosa [6],17.4 mm
same,zone of inhibition at 100 µg/mL,Aspergillus niger,15.2 mm
Cc1[nH]n(-c2ccccc2)c(=O)c1CNc1ccc(S(N)(=O)=O)cc1,Activity,Rattus norvegicus [1],92%
same,IC50,[10],> 100 µM
same,Ratio IC50,Ovis aries,> 100
same,ED50,Rattus norvegicus [2],109 mg/kg
CC1=NN(c2nc(-c3ccccc3)cs2)C(=O)C1C(=S)Nc1ccccc1 (stereo unspecified),Activity,[11],88.6%
NS(=O)(=O)c1ccc(N/N=C2/C=NN(c3ccccc3C(=O)O)C2=O)cc1,IC50,[10],3.76 µM
same,IC50,[12],0.66 µM
same,Ratio IC50,Ovis aries,5.69
CC(=O)OC1CC[C@@]2(C)C(C1)/C(=C1/C(=O)NN=C1N)C[C@H]1[C@@H]3CC[C@H]([C@H](C)CCCC(C)C)[C@@]3(C)CC[C@@H]12 (stereo partly specified),MIC,Streptococcus pyogenes,50 mg/L
same,MIC,Pseudomonas aeruginosa [13],50 mg/L
same,MIC,Escherichia coli [14],50 mg/L
same,MIC,Aspergillus fumigatus,50 mg/L
same,MIC,Candida albicans [15],25 mg/L
Cc1[nH]n(-c2ccccc2)c(=O)c1C(c1ccc(Br)cc1)c1c(O)ccc2ccccc12 (stereo unspecified),zone of inhibition at 100 µg/mL,Bacillus subtilis,18.5 mm
same,zone of inhibition at 100 µg/mL,Streptococcus mutans,29.5 mm
same,zone of inhibition at 100 µg/mL,Micrococcus luteus,18.5 mm
same,zone of inhibition at 100 µg/mL,Pseudomonas aeruginosa [6],14.5 mm
same,zone of inhibition at 100 µg/mL,Salmonella typhi,19.5 mm
same,zone of inhibition at 100 µg/mL,Salmonella paratyphi,19.5 mm
same,zone of inhibition at 100 µg/mL,Candida albicans [7],15.5 mm
same,zone of inhibition at 100 µg/mL,Trichoderma viride,13.5 mm
CC(C)CCC[C@@H](C)[C@H]1CC[C@H]2[C@@H]3C/C(=C4\C(=O)NN=C4N)C4CC(Cl)CC[C@]4(C)[C@H]3CC[C@]12C (stereo partly specified),MIC,Streptococcus pyogenes,50 mg/L
same,MIC,Pseudomonas aeruginosa [13],50 mg/L
same,MIC,Escherichia coli [14],100 mg/L
same,MIC,Aspergillus fumigatus,50 mg/L
same,MIC,Candida albicans [15],50 mg/L
CC1=NN(C(=O)c2ccc3ccccc3c2)C(=O)C1/N=N/c1ccc(C)cc1C (stereo unspecified),Activity,Mus musculus [16],-36.3%
same,Time,Mus musculus [17],129.5 s
same,Time,Mus musculus [18],111 s
same,Activity,Mus musculus [19],-40.2%
CN(C)CCCN1c2ccccc2CCc2ccccc21 [IMIPRAMINE],Activity,Mus musculus [16],-53.8%
same,Time,Mus musculus [17],94 s
same,Time,Mus musculus [18],109 s
same,Activity,Mus musculus [19],-41.3%
CC/C(=N/NC(=O)c1ccco1)c1c(C)nn(-c2ccccc2)c1O,IC50,HepG2,5.69 mg/L
same,IC50,PC-3,6.8 mg/L
Cc1c(/N=C/c2cc(O)ccc2O)c(=O)n(-c2ccccc2)n1C,IC50,[8],17.1 µM
